Experimental data: patent US20240108632A1, “PHARMACEUTICAL COMPOSITION FOR ADMINISTRATION AS OPHTHALMIC DROP TO PATIENT REQUIRING OPTIC NERVE PROTECTION” (PINOTBIO, INC., priority 2020, published 2024)
Converted amounts (≈) assume the structure as drawn.

Experiments:
[1] = test system: cynomolgus macaque model of glaucoma; assay: Funduscopy in cynomolgus macaque model of glaucoma; format: in vivo
Method: (§1) Three weeks before the first laser trabeculoplasty, IOP was measured via a tomometer (SPHPR-320-61), once per week for three weeks. The first laser trabeculoplasty was performed in one eye for each macaque. Two weeks later, laser trabeculoplasty was repeated in the same eye (Week 0).
(§2) One week after the second laser trabeculoplasty (Week 1), IOP was measured and retinal nerve fiber layer (RNFL) thickness was measured via optical coherence tomography (OCT; RS3000 Advance, Nidek Co. Ltd., Gamagoori, Japan) (SPHPR- 320-58). The day after group assignment, the eyes were instilled with either vehicle, KR-67607 or brimonidine twice a day. On Day 1, the effect of treatment on IOP over time was measured before treatment and 1, 2, 4, and 8 hrs. after instillation. At the same time, blood samples were obtained. From the effects of dosing observed on Day 1, it was determined that 2 hrs. was a reasonable time time-to-test following instillation for subsequent observations.
(§3) Intraocular pressures were obtained at Weeks 2, 3, 4, 5, 7 and 9. Optical coherence tomography and color fundus photography (CFP) were performed at Weeks 1, 3, 5, 7, and 9 (SPHPR-320-56).

[2] = test system: cynomolgus macaque model of glaucoma; assay: Intraocular pressure in cynomolgus macaque model of glaucoma (laser trabeculoplasty); format: in vivo; settings: for maximum decrease of IOP, glaucomatous eye: 2 hours after instillation
Method: as §1, §2, §3
Following measurements at Week 9, G3 macaques was randomized into two groups based on IOP, and the effect of KR-67607 (1.5 mg/mL, 3.0 mg/mL) on IOP was evaluated.

[3] = test system: cynomolgus macaque model of glaucoma; assay: Retinal nerve fiber layer thickness by OCT in cynomolgus macaque model of glaucoma; format: in vivo
Method: as §1, §2, §3

DBA/2 mice [4] = assay: Retinal electroretinogram in glaucoma mouse model; format: in vivo; settings: after 8 weeks; right eye only; 0.3 log cd×s/m^2 stimulation; high-dose; transient
Method: […] was performed according to the manufacturer's instructions after mice were anesthetized by instilling 20 μl of paracaine eye drops 0.5% in both eyes. The electrodes were placed on the scalp, tail, and cornea, respectively, and a certain amount of monochromatic white light stimulation was applied to perform retinal electroretinography. The response value of the stimulated retina and the amplitude from the crest of the a-wave to the peak of the b-wave were measured and evaluated as an indicator of retinal function.
To determine the effect of KR-67607 on retinal dysfunction and optic nerve damage, the electroretinograms of mice in the study were measured at 4-week intervals for 16 weeks. The electroretinograms were quantified by analyzing responses obtained by exposing the left and right eyes of the mice to −0.9, 0.3, and 1.2 log cd×s/m^2 of light, respectively. […] Before drug administration, there was no significant difference in retinal electroretinograms between the control, drug, and positive control groups. […] This effect was only transient at week 8, and no significant difference was seen from week 12.

DBA/2 mice [5] = assay: Histology and immunostaining of retina and optic nerve head in glaucoma mouse model; settings: after 16 weeks of drug treatment
Method: After drug administration was terminated, the mice's eyes were enucleated and tissues were analyzed (FIGS. 14 to 26).
The optic nerve papilla area was analyzed by H&E staining, Caspase-3, 9, and TUNEL staining in retinal tissue removed and fixed from eyes of mice after 16 weeks of drug treatment. […] To determine the degree of cell death in the damaged optic nerve papilla tissue, Caspase-3, 9 staining (FIGS. 15 and 16), an indicator of early apoptosis, and TUNEL staining (FIG. 17), an indicator of late apoptosis, were performed.

DBA/2 mice [6] = assay: Intraocular pressure in ocular hypertensive glaucoma mouse model; format: in vivo; settings: for IOP reduced compared to control group: week 16, 20 μl both eyes twice daily
Method: In this study, we evaluated the efficacy of KR-67607 in a mouse model of glaucoma using DBA/2 mice, which are congenitally predisposed to persistently elevated intraocular pressure (FIG. 9).
IOP was measured after the acclimatization period and then every 4 weeks. IOP was measured in respiratory anesthetized mice according to the manufacturer's instructions and the mean value presented after six measurements was recorded.

[7] = Solubility by HP-β-CD concentration at pH adjustment; format: physicochemical
Method: Various concentrations of HP-β-CD aqueous solutions were prepared by adding 1%, 2%, 3%, and 4% (w/v) of HP-β-CD to tertiary purified water (pH 5.5), pH 7.4 phosphate buffer, and 0.04 M NaOH aqueous solution (pH 12.5). An excess of KR-67607 was added to the above HP-β-CD solution and stirred for 24 hours, then the supernatant was collected and filtered through a 0.2 μm PVDF filter, and 1 mL was added to a 10 mL volumetric flask and labeled with methanol.
For the standard solution, 50 mg of KR-67607 was accurately weighed and placed in a 50 mL volumetric flask and completely dissolved/stained with methanol. 1, 2, 4, 6, 8, 10 mL of the standard solution was accurately taken and placed in a 20 mL volumetric flask, and the one labeled with methanol was used as the standard.

In the case of `CC1CN(CC(=O)NC2C3CC4CC2CC(C(N)=O)(C4)C3)S(=O)(=O)N(c2c(Cl)cc(C(F)(F)F)cc2Cl)C1` [KR-67607, (1s, 3R,4s,5S,7s)-4-(2-(6-(2,6-dichloro-4-(trifluoromethyl)phenyl)-4-methyl-1,1-dioxido-1,2,6-thiadiazinan-2-yl)acetamido)adamantane-1-carboxamide], the “animals with small optic discs compared to G1 in the glaucomatous eyes” value ([1]; Week 5) is reported as “four of six animals”, the “animals with a small or lesser degree of cupping” value ([1]; Week 9) is reported as “three animals” and the “maximum decrease of IOP, contralateral normal eye” value ([2]; Day 1 dosing, 2 hours after dosing) is reported as “did not decrease”. The “maximum decrease of IOP, glaucomatous eye” value ([2]; Day 1 dosing) was 9.2±4.1 mmHg, the “effect on IOP (Extra dosing)” value ([2]; KR-67607 1.5 mg/mL, after Week 9) was “did not affect” and the “maximum decrease of IOP (Extra dosing)” value ([2]; KR-67607 3.0 mg/mL, 1 hour after instillation) was 12.0±2.8 mmHg. For the same compound, the “effect on trough IOP value” ([2]; glaucomatous eyes, repeated treatment twice a day, brimonidine tartrate 0.1%, KR-67607 1.5 mg/mL) was “did not significantly affect”, the “maximum decrease of IOP, normal eye” value ([2]; over weeks) was “did not decrease” and the “maximum decrease of IOP, glaucomatous eye” value ([2]; over weeks) was 10.4±2.2 mmHg. For the same compound, the “IOP-decreasing effect in glaucomatous eyes relative to brimonidine” value ([2]; summary) was “smaller than that of brimonidine”, the “RNFL thickness compared with vehicle treatment” value ([3]; 5 weeks, unpaired t-test, p<0.05) was “greater” and the “number of eyes with RNFL thickness greater than 50% compared to baseline” value ([3]; Week 9, 6 eyes per group) was 3. The “RNFL thinning in glaucomatous eyes” value ([3]; repeated treatment, compared to vehicle-treated (G1)) was “significantly inhibited”, the “inhibitory effect on RNFL thinning relative to brimonidine” value ([3]; summary) was “greater than that of brimonidine” and the “retinal electroretinograms compared to control group” value (DBA/2 mice [4]) was “significant increase”. The “Brn3a expression in flat-mounted retinal tissue” value (DBA/2 mice [5]) was “relatively increased”, the GABAergic amacrine cells (DBA/2 mice [5]) was “relatively increased” and the “GFAP expression (activated astrocytes) in optic nerve” value (DBA/2 mice [5]) was “less concentrated”. For the same compound, the “GLT-1 expression in retina” value (DBA/2 mice [5]) was “no quantitative or qualitative difference”, the “degree of retinal ganglion cell death (caspase-3 and 9)” value (DBA/2 mice [5]) was “relatively reduced” and the “glaucomatous histologic features of optic nerve papilla (H&E: cupping, nerve fiber layer thinning)” value (DBA/2 mice [5]) was “alleviated”. The “loss of retinal ganglion cells (H&E)” value (DBA/2 mice [5]) was “less loss”, the “number of Iba-1 positive microglia” value (DBA/2 mice [5]) was “decreased” and the “number of caspase-3, 9 expressing and TUNEL-positive cells in optic nerve papillae” value (DBA/2 mice [5]) was “significantly reduced”. For the same compound, the “week from which significant IOP reduction was seen” value (DBA/2 mice [6]; high dose KR-67607 (1.5 mg/ml)) was 4 week, the “week from which IOP-lowering effects were observed” value (DBA/2 mice [6]; low-dose KR-67607 (0.75 mg/ml)) was 12 week and the “IOP reduced compared to control group” value (DBA/2 mice [6]; high-dose KR-67607 (1.5 mg/ml)) was 26%. The “IOP reduced compared to control group” value (DBA/2 mice [6]; low concentration KR-67607 (0.75 mg/ml)) was 16%, the Solubility by HP-β-CD concentration ([7]; HP-β-CD 1.0 % w/v, 0.04M NaOH aqueous solution (pH 12.5)) was 3.16 mg/mL (≈ 5.29 mM) and the Solubility by HP-β-CD concentration ([7]; HP-β-CD 1.0 % w/v, phosphate buffer (pH 7.4)) was 2.59 mg/mL (≈ 4.33 mM). It also gave a Solubility by HP-β-CD concentration ([7]; HP-β-CD 1.0 % w/v, purified water (pH 5.5)) of 2.55 mg/mL (≈ 4.27 mM), a Solubility by HP-β-CD concentration ([7]; HP-β-CD 2.0 % w/v, 0.04M NaOH aqueous solution (pH 12.5)) of 5.72 mg/mL (≈ 9.57 mM) and a Solubility by HP-β-CD concentration ([7]; HP-β-CD 2.0 % w/v, phosphate buffer (pH 7.4)) of 4.29 mg/mL (≈ 7.18 mM). The Solubility by HP-β-CD concentration ([7]; HP-β-CD 2.0 % w/v, purified water (pH 5.5)) was 4.23 mg/mL (≈ 7.08 mM), the Solubility by HP-β-CD concentration ([7]; HP-β-CD 3.0 % w/v, 0.04M NaOH aqueous solution (pH 12.5)) was 7.9 mg/mL (≈ 13.2 mM) and the Solubility by HP-β-CD concentration ([7]; HP-β-CD 3.0 % w/v, phosphate buffer (pH 7.4)) was 6 mg/mL (≈ 10 mM). It also gave a Solubility by HP-β-CD concentration ([7]; HP-β-CD 3.0 % w/v, purified water (pH 5.5)) of 6 mg/mL (≈ 10 mM), a Solubility by HP-β-CD concentration ([7]; HP-β-CD 4.0 % w/v, 0.04M NaOH aqueous solution (pH 12.5)) of 9.61 mg/mL (≈ 16.1 mM) and a Solubility by HP-β-CD concentration ([7]; HP-β-CD 4.0 % w/v, phosphate buffer (pH 7.4)) of 6.79 mg/mL (≈ 11.4 mM). It also gave a Solubility by HP-β-CD concentration ([7]; HP-β-CD 4.0 % w/v, purified water (pH 5.5)) of 6.91 mg/mL (≈ 11.6 mM).
